Patent US9474279B2, “Methods of controlling insects” (Syngenta Participations AG, priority 2012, dated 2016)

Assays:
Assay type in all cases: in vivo
[1] = test system: Nilaparvata lugens (Brown Plant Hopper); experiment: Nilaparvata lugens (Brown Plant Hopper) rice seedling spray test, mortality; conditions: N3 nymphs, mortality 6-12 days after treatment
Method: Nilaparvata lugens (Brown Plant Hopper) Rice seedlings are treated with the diluted test solutions in a spray chamber. After drying, plants are infested with 20 N3 nymphs (2 replicates). 6-12 days after the treatment samples are checked for mortality

[2] = test system: Nephotettix virescens (Green Leafhopper); experiment: Nephotettix virescens (Green Leafhopper) rice seedling spray test, mortality; conditions: N5 nymphs, mortality 5 days after treatment
Method: […] Nephotettix virescens (Green Leafhopper) Rice seedlings are treated with the diluted test solutions in a spray chamber. After drying, plants are infested with 10 N5 nymphs (3 replicates). 5 days after the treatment samples are checked for mortality.

[3] = test system: Chilo suppressalis (Rice Stem Borer); experiment: Chilo suppressalis (Rice Stem Borer) treated rice leaf petri dish test, mortality; conditions: L2 larvae, mortality 5 days after treatment
Method: Chilo suppressalis (Rice Stem Borer) Rice seedlings are treated and after drying the leaves are cut and transferred into a petri dish coated with wet filter paper. 10 larvae (L2) are added and the dish is covered with a filter tissue and a plastic lid. 5 days after treatment the percentage mortality is assessed (3 replicates per concentration).

## Cc1cc(C2=NCC(c3cc(Cl)cc(Cl)c3)(C(F)(F)F)C2)ccc1C(=O)NC1CON(CC(F)(F)F)C1=O (stereo not drawn) [Compound B3]
[1]; rate 12.5 ppm
  Control/%: 100%
[1]; rate 25 ppm
  Control/%: 100%
[1]; rate 50 ppm
  Control/%: 100%

## Cc1cc(C2=NOC(c3cc(Cl)cc(Cl)c3)(C(F)(F)F)C2)ccc1C(=O)NC1CON(C)C1=O (mixture of isomers) [Compound A1]
[1]; rate 12.5 ppm
  Control/%: 93%
[1]; rate 25 ppm
  Control/%: 93%
[1]; rate 50 ppm
  Control/%: 98%

## Cc1cc(C2=NOC(c3cc(Cl)cc(Cl)c3)(C(F)(F)F)C2)ccc1C(=O)NC1CON(CC(F)F)C1=O (mixture of isomers) [Compound A20]
[1]; rate 12.5 ppm
  Control/%: 100%
[1]; rate 25 ppm
  Control/%: 100%
[1]; rate 50 ppm
  Control/%: 100%

## CCN1OCC(NC(=O)c2ccc(C3=NOC(c4cc(F)cc(Cl)c4)(C(F)(F)F)C3)cc2C)C1=O (mixture of isomers) [Compound A11]
[1]; rate 12.5 ppm
  Control/%: 80%
[1]; rate 25 ppm
  Control/%: 55%
[1]; rate 50 ppm
  Control/%: 100%

## CCN1OC[C@@H](NC(=O)c2ccc(C3=NO[C@@](c4cc(Cl)cc(Cl)c4)(C(F)(F)F)C3)cc2C)C1=O [Compound A3]
[2]; application rate 3 ppm
  Control/%: 90%
[2]; application rate 12 ppm
  Control/%: 100%
[2]; application rate 50 ppm
  Control/%: 100%
[2]; application rate 200 ppm
  Control/%: 100%
[1]; rate 12.5 ppm
  Control/%: 100%
[1]; rate 25 ppm
  Control/%: 100%
[1]; rate 50 ppm
  Control/%: 100%
[3]; application rate 0.05 ppm
  Control/%: 97%
[3]; application rate 0.2 ppm
  Control/%: 100%
[3]; application rate 0.8 ppm
  Control/%: 100%

## CCN1OC[C@@H](NC(=O)c2ccc(C3=NO[C@@](c4cc(Cl)cc(C(F)(F)F)c4)(C(F)(F)F)C3)c3ccccc23)C1=O [Compound A26]
[1]; rate 12.5 ppm
  Control/%: 83%
[1]; rate 25 ppm
  Control/%: 100%
[1]; rate 50 ppm
  Control/%: 100%

## CCN1OC[C@@H](NC(=O)c2ccc(C3=NO[C@@](c4cc(Cl)cc(Cl)c4)(C(F)(F)F)C3)cc2Br)C1=O [Compound A34]
[1]; rate 12.5 ppm
  Control/%: 98%
[1]; rate 25 ppm
  Control/%: 100%
[1]; rate 50 ppm
  Control/%: 100%

## Cc1cc(C2=NO[C@@](c3cc(Cl)cc(Cl)c3)(C(F)(F)F)C2)ccc1C(=O)N[C@@H]1CON(CC(F)(F)F)C1=O [Compound A9]
[2]; application rate 3 ppm
  Control/%: 100%
[2]; application rate 12 ppm
  Control/%: 100%
[2]; application rate 50 ppm
  Control/%: 100%
[2]; application rate 200 ppm
  Control/%: 100%
[1]; rate 12.5 ppm
  Control/%: 98%
[1]; rate 25 ppm
  Control/%: 100%
[1]; rate 50 ppm
  Control/%: 100%
[3]; application rate 0.05 ppm
  Control/%: 43%
[3]; application rate 0.2 ppm
  Control/%: 100%
[3]; application rate 0.8 ppm
  Control/%: 100%

## CCN1OCC(NC(=O)c2ccc(C3=NOC(c4cc(Cl)c(Br)c(Cl)c4)(C(F)(F)F)C3)cc2C)C1=O (mixture of isomers) [Compound A7]
[1]; rate 12.5 ppm
  Control/%: 100%
[1]; rate 25 ppm
  Control/%: 100%
[1]; rate 50 ppm
  Control/%: 100%

## CCN1OCC(NC(=O)c2ccc(C3=NCC(c4cc(Cl)cc(Cl)c4)(C(F)(F)F)C3)cc2C)C1=O (mixture of isomers) [Compound B1]
[1]; rate 12.5 ppm
  Control/%: 0%
[1]; rate 25 ppm
  Control/%: 78%
[1]; rate 50 ppm
  Control/%: 90%

## Cc1cc(C2=NOC(c3cc(Cl)cc(Cl)c3)(C(F)(F)F)C2)ccc1C(=O)NC1CON(C)C1=O (mixture of isomers) [Compound A22]
[1]; rate 12.5 ppm
  Control/%: 98%
[1]; rate 25 ppm
  Control/%: 100%
[1]; rate 50 ppm
  Control/%: 100%

## Cc1cc(C2=NO[C@@](c3cc(Cl)cc(Cl)c3)(C(F)(F)F)C2)ccc1C(=O)N[C@@H]1CON(CC(F)F)C1=O [Compound A12]
[1]; rate 12.5 ppm
  Control/%: 100%
[1]; rate 25 ppm
  Control/%: 100%
[1]; rate 50 ppm
  Control/%: 100%

## CCN1OCC(NC(=O)c2ccc(C3=COC(c4cc(Cl)cc(Cl)c4)(C(F)(F)F)C3)cc2C)C1=O (mixture of isomers) [Compound C1]
[1]; rate 12.5 ppm
  Control/%: 0%
[1]; rate 25 ppm
  Control/%: 15%
[1]; rate 50 ppm
  Control/%: 95%

## CCN1OC[C@@H](NC(=O)c2ccc(C3=NO[C@@](c4cc(Cl)c(Cl)c(Cl)c4)(C(F)(F)F)C3)cc2C(F)(F)F)C1=O [Compound A29]
[1]; rate 12.5 ppm
  Control/%: 55%
[1]; rate 25 ppm
  Control/%: 88%
[1]; rate 50 ppm
  Control/%: 100%

## CCN1OC[C@@H](NC(=O)c2ccc(C3=NO[C@@](c4cc(Cl)c(Cl)c(Cl)c4)(C(F)(F)F)C3)cc2Br)C1=O [Compound A33]
[1]; rate 12.5 ppm
  Control/%: 80%
[1]; rate 25 ppm
  Control/%: 98%
[1]; rate 50 ppm
  Control/%: 98%

## CCN1OC[C@@H](NC(=O)c2ccc(C3=NO[C@@](c4cc(Cl)cc(Cl)c4)(C(F)(F)F)C3)cc2C(F)(F)F)C1=O [Compound A28]
[1]; rate 12.5 ppm
  Control/%: 0%
[1]; rate 25 ppm
  Control/%: 50%
[1]; rate 50 ppm
  Control/%: 95%

## CCN1OCC(NC(=O)c2ccc(C3=NOC(c4cc(C(F)(F)F)c(Cl)c(C(F)(F)F)c4)(C(F)(F)F)C3)cc2C)C1=O (mixture of isomers) [Compound A10]
[1]; rate 12.5 ppm
  Control/%: 100%
[1]; rate 25 ppm
  Control/%: 100%
[1]; rate 50 ppm
  Control/%: 100%

## CCN1OCC(NC(=O)c2ccc(C3=NOC(c4cc(Cl)c(Cl)c(Cl)c4)(C(F)(F)F)C3)cc2C)C1=O (mixture of isomers) [Compound A6]
[1]; rate 12.5 ppm
  Control/%: 100%
[1]; rate 25 ppm
  Control/%: 100%
[1]; rate 50 ppm
  Control/%: 100%

## Cc1cc(C2=NOC(c3cc(Cl)cc(Cl)c3)(C(F)(F)F)C2)ccc1C(=O)NC1CON(CC(F)(F)F)C1=O (mixture of isomers) [Compound A19]
[1]; rate 12.5 ppm
  Control/%: 100%
[1]; rate 25 ppm
  Control/%: 100%
[1]; rate 50 ppm
  Control/%: 100%

## CCN1OC[C@@H](NC(=O)c2ccc(C3=NO[C@@](c4cc(Cl)c(F)c(Cl)c4)(C(F)(F)F)C3)cc2Cl)C1=O [Compound A25]
[1]; rate 12.5 ppm
  Control/%: 100%
[1]; rate 25 ppm
  Control/%: 100%
[1]; rate 50 ppm
  Control/%: 100%

## Cc1cc(C2=NOC(c3cc(Cl)c(Cl)c(Cl)c3)(C(F)(F)F)C2)ccc1C(=O)NC1CON(CC(F)(F)F)C1=O (mixture of isomers) [Compound A23]
[1]; rate 12.5 ppm
  Control/%: 90%
[1]; rate 25 ppm
  Control/%: 98%
[1]; rate 50 ppm
  Control/%: 100%

## CCN1OCC(NC(=O)c2ccc(C3=NOC(c4cc(Cl)cc(Cl)c4)(C(F)(F)F)C3)cc2C)C1=O (mixture of isomers) [Compound A18]
[1]; rate 12.5 ppm
  Control/%: 100%
[1]; rate 25 ppm
  Control/%: 100%
[1]; rate 50 ppm
  Control/%: 100%

## CCN1OC[C@@H](NC(=O)c2ccc(C3=NO[C@@](c4cc(Cl)c(Cl)c(Cl)c4)(C(F)(F)F)C3)cc2C)C1=O [Compound A35]
[1]; rate 12.5 ppm
  Control/%: 93%
[1]; rate 25 ppm
  Control/%: 100%
[1]; rate 50 ppm
  Control/%: 98%

## CCN1OC[C@@H](NC(=O)c2ccc(C3=NO[C@@](c4cccc(C(F)(F)F)c4)(C(F)(F)F)C3)cc2C)C1=O [Compound A30]
[1]; rate 12.5 ppm
  Control/%: 93%
[1]; rate 25 ppm
  Control/%: 100%
[1]; rate 50 ppm
  Control/%: 98%

## CCN1OCC(NC(=O)c2ccc(C3=NOC(c4cc(Cl)c(F)c(Cl)c4)(C(F)(F)F)C3)cc2C)C1=O (mixture of isomers) [Compound A8]
[1]; rate 12.5 ppm
  Control/%: 100%
[1]; rate 25 ppm
  Control/%: 100%
[1]; rate 50 ppm
  Control/%: 100%

## Cc1cc(C2=NO[C@@](c3cc(Cl)cc(Br)c3)(C(F)(F)F)C2)ccc1C(=O)N[C@@H]1CON(CC(F)(F)F)C1=O [Compound A17]
[1]; rate 12.5 ppm
  Control/%: 100%
[1]; rate 25 ppm
  Control/%: 100%
[1]; rate 50 ppm
  Control/%: 100%

## CCN1OCC(NC(=O)c2ccc(C3=NCC(c4cc(Cl)cc(Cl)c4)(C(F)(F)F)C3)cc2C)C1=O (stereo not drawn) [Compound B2]
[1]; rate 12.5 ppm
  Control/%: 15%
[1]; rate 25 ppm
  Control/%: 70%
[1]; rate 50 ppm
  Control/%: 88%

## Cc1cc(C2=NOC(c3cc(Cl)cc(Cl)c3)(C(F)(F)F)C2)ccc1C(=O)NC1CON(C)C1=O (mixture of isomers) [Compound A5]
[1]; rate 12.5 ppm
  Control/%: 0%
[1]; rate 25 ppm
  Control/%: 65%
[1]; rate 50 ppm
  Control/%: 98%

## Cc1cc(C2=NOC(c3cc(Cl)cc(Cl)c3)(C(F)(F)F)C2)ccc1C(=O)NC1CON(CC(F)(F)F)C1=O (mixture of isomers) [Compound A2]
[1]; rate 12.5 ppm
  Control/%: 80%
[1]; rate 25 ppm
  Control/%: 98%
[1]; rate 50 ppm
  Control/%: 99%

## Cc1cc(C2=NO[C@@](c3cc(Cl)c(Cl)c(Cl)c3)(C(F)(F)F)C2)ccc1C(=O)N[C@@H]1CON(CC(F)(F)F)C1=O [Compound A13]
[1]; rate 12.5 ppm
  Control/%: 75%
[1]; rate 25 ppm
  Control/%: 100%
[1]; rate 50 ppm
  Control/%: 98%

## CCN1OC[C@@H](NC(=O)c2ccc(C3=NO[C@@](c4cc(Cl)cc(Br)c4)(C(F)(F)F)C3)cc2C)C1=O [Compound A16]
[1]; rate 12.5 ppm
  Control/%: 95%
[1]; rate 25 ppm
  Control/%: 97%
[1]; rate 50 ppm
  Control/%: 98%

## CCN1OC[C@@H](NC(=O)c2ccc(C3=NO[C@@](c4cc(Cl)c(F)c(Cl)c4)(C(F)(F)F)C3)cc2C)C1=O [Compound A24]
[1]; rate 12.5 ppm
  Control/%: 75%
[1]; rate 25 ppm
  Control/%: 85%
[1]; rate 50 ppm
  Control/%: 98%

## CCN1OC[C@@H](NC(=O)c2ccc(C3=NO[C@@](c4cc(Cl)cc(C(F)(F)F)c4)(C(F)(F)F)C3)cc2C)C1=O [Compound A15]
[1]; rate 12.5 ppm
  Control/%: 99%
[1]; rate 25 ppm
  Control/%: 99%
[1]; rate 50 ppm
  Control/%: 100%

## CCN1OCC(NC(=O)c2ccc(C3=NOC(c4cc(Cl)cc(Cl)c4)(C(F)(F)F)C3)cc2C)C1=O (mixture of isomers) [Compound A4]
[1]; rate 12.5 ppm
  Control/%: 88%
[1]; rate 25 ppm
  Control/%: 93%
[1]; rate 50 ppm
  Control/%: 100%

## Cc1cc(C2=NO[C@@](c3cc(Cl)c(F)c(Cl)c3)(C(F)(F)F)C2)ccc1C(=O)N[C@@H]1CON(CC(F)(F)F)C1=O [Compound A14]
[1]; rate 12.5 ppm
  Control/%: 100%
[1]; rate 25 ppm
  Control/%: 100%
[1]; rate 50 ppm
  Control/%: 100%

## CCN1OCC(NC(=O)c2ccc(C3=NOC(c4cc(Cl)c(F)c(Cl)c4)(C(F)(F)F)C3)cc2C)C1=O (mixture of isomers) [Compound A21]
[1]; rate 50 ppm
  Control/%: 100%
